# From PubChem BioAssay (NCI)
#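 GI50 marks 50% less growth. TGI: total growth inhibition.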
# Legend:
# Assay in all cases: DTP human tumour cell line panel, 384-well format
# 786-0 renal = tested on: 786-0 renal
# A498 renal = tested on: A498 renal
# A549 NSCLC = tested on: A549 NSCLC
# ACHN renal = tested on: ACHN renal
# BT-549 breast = tested on: BT-549 breast
# CAKI-1 renal = tested on: CAKI-1 renal
# CCRF-CEM leukemia = tested on: CCRF-CEM leukemia
# COLO 205 colon = tested on: COLO 205 colon
# DU-145 prostate = tested on: DU-145 prostate
# EKVX NSCLC = tested on: EKVX NSCLC
# HCC-2998 colon = tested on: HCC-2998 colon
# HCT-116 colon = tested on: HCT-116 colon
# HCT-15 colon = tested on: HCT-15 colon
# HL-60(TB) leukemia = tested on: HL-60(TB) leukemia
# HOP-62 NSCLC = tested on: HOP-62 NSCLC
# HOP-92 NSCLC = tested on: HOP-92 NSCLC
# HS 578T breast = tested on: HS 578T breast
# HT29 colon = tested on: HT29 colon
# IGROV1 ovarian = tested on: IGROV1 ovarian
# K-562 leukemia = tested on: K-562 leukemia
# KM12 colon = tested on: KM12 colon
# LOX IMVI melanoma = tested on: LOX IMVI melanoma
# M14 melanoma = tested on: M14 melanoma
# MALME-3M melanoma = tested on: MALME-3M melanoma
# MCF7 breast = tested on: MCF7 breast
# MDA-MB-231 breast = tested on: MDA-MB-231 breast
# MDA-MB-435 melanoma = tested on: MDA-MB-435 melanoma
# MDA-MB-468 breast = tested on: MDA-MB-468 breast
# MOLT-4 leukemia = tested on: MOLT-4 leukemia
# NCI-H226 lung = tested on: NCI-H226 lung
compound,measurement,setting,value
C[C@]12O[C@H](C[C@]1(O)CO)n1c3ccccc3c3c4c(c5c6ccccc6n2c5c31)CNC4=O,GI50,786-0 renal,0.0313 µM
same,TGI,786-0 renal,0.515 µM
same,GI50,A498 renal,< 0.01 µM
same,TGI,A498 renal,1.37 µM
same,GI50,A549 NSCLC,0.0763 µM
same,TGI,A549 NSCLC,1.59 µM
same,GI50,ACHN renal,< 0.01 µM
same,TGI,ACHN renal,1.68 µM
same,GI50,BT-549 breast,0.0123 µM
same,TGI,BT-549 breast,0.213 µM
same,GI50,CAKI-1 renal,< 0.01 µM
same,TGI,CAKI-1 renal,0.228 µM
same,GI50,CCRF-CEM leukemia,0.0113 µM
same,TGI,CCRF-CEM leukemia,0.0397 µM
same,GI50,COLO 205 colon,0.0202 µM
same,TGI,COLO 205 colon,0.103 µM
same,GI50,DU-145 prostate,< 0.01 µM
same,TGI,DU-145 prostate,1.62 µM
same,GI50,EKVX NSCLC,0.0336 µM
same,TGI,EKVX NSCLC,0.471 µM
same,GI50,HCC-2998 colon,0.153 µM
same,TGI,HCC-2998 colon,0.773 µM
same,GI50,HCT-116 colon,< 0.01 µM
same,TGI,HCT-116 colon,10.3 µM
same,GI50,HCT-15 colon,< 0.01 µM
same,TGI,HCT-15 colon,1.3 µM
same,GI50,HL-60(TB) leukemia,< 0.01 µM
same,TGI,HL-60(TB) leukemia,0.0516 µM
same,GI50,HOP-62 NSCLC,0.0445 µM
same,TGI,HOP-62 NSCLC,0.646 µM
same,GI50,HOP-92 NSCLC,0.0706 µM
same,TGI,HOP-92 NSCLC,0.72 µM
same,GI50,HS 578T breast,0.0339 µM
same,TGI,HS 578T breast,0.769 µM
same,GI50,HT29 colon,0.212 µM
same,TGI,HT29 colon,10.5 µM
same,GI50,IGROV1 ovarian,< 0.01 µM
same,TGI,IGROV1 ovarian,1.15 µM
same,GI50,K-562 leukemia,0.0601 µM
same,TGI,K-562 leukemia,1.61 µM
same,GI50,KM12 colon,< 0.01 µM
same,TGI,KM12 colon,0.212 µM
same,GI50,LOX IMVI melanoma,0.0253 µM
same,TGI,LOX IMVI melanoma,0.186 µM
same,GI50,M14 melanoma,< 0.01 µM
same,TGI,M14 melanoma,0.155 µM
same,GI50,MALME-3M melanoma,< 0.01 µM
same,TGI,MALME-3M melanoma,0.0795 µM
same,GI50,MCF7 breast,0.0642 µM
same,TGI,MCF7 breast,1.33 µM
same,GI50,MDA-MB-231 breast,0.0609 µM
same,TGI,MDA-MB-231 breast,1.54 µM
same,GI50,MDA-MB-435 melanoma,< 0.01 µM
same,TGI,MDA-MB-435 melanoma,1.11 µM
same,GI50,MDA-MB-468 breast,0.0215 µM
same,TGI,MDA-MB-468 breast,0.29 µM
same,GI50,MOLT-4 leukemia,< 0.01 µM
same,TGI,MOLT-4 leukemia,0.0128 µM
same,GI50,NCI-H226 lung,0.0574 µM
